The values that follow come from US11202782B2, “Treatment cancers using a combination comprising PARP inhibitors” (BeiGene, Ltd., priority 2016, dated 2021).

For series [1], the system named is primary human gastric cancer xenograft. Nature of the series: Tumor growth in primary human gastric cancer xenograft model. The series is classed as in vivo, BALB/c nude mice. The settings on record: paclitaxel 15 mg/kg Q4D×3 i.p.; Compound A 12 mg/kg BID p.o.; not statistically different from vehicle. Here is the method:
(§1) Tumor tissues surgically removed from a patient with gastric cancer. Within 2 to 4 hours following patient surgery, small fragments of tumor (3×3×3 mm^3) were subcutaneously engrafted into the scapular area of anesthetized NOD/SCID mice. After tumors grew to around 300-1000 mm^3, tumors were surgically removed and fragments were passaged in NOD/SCID mice by subsequent engraftments. Engraftment in BALB/c nude mice was conducted after 3 successfully passages in NOD/SCID mice. The right axilla region of each BALB/C nude mouse was cleaned with 70% ethanol prior to tumor fragments inoculation. Each animal was implanted subcutaneously with a fragment (around 3×3×3 mm^3) of the gastric cancer in the right flank via 20-gauge trocar needle.
All doses were based on free-base weight.
After implantation, primary tumor volume was measured in two dimensions using a calliper. Tumor volume was calculated using the formula: V=0.5×(a×b^2) where a and b are the long and short diameters of the tumor, respectively. Tumor growth inhibition (TGI) was calculated using the following formula:
[formula] Statistical analysis was conducted using the student T-test. P<0.05 was considered statistically significant.

The subject of another series is PARP1/2. The settings on record: disclosed in WO2013/097225A1; cited from earlier work.
Series [2] is described as follows: Body weight and toxicity in primary human SCLC (extensive-stage) xenograft model. The settings on record: cohort2, Compound B 5.45 mg/kg BID maintenance. The series is classed as in vivo, BALB/c nude mice. Here is the method:
47 days after implantation, animals bearing tumor were divided to two cohorts, cohort lused smaller tumors for combination setting and cohort 2 used bigger tumors for maintenance setting. In cohort1, animals with mean tumor size of ˜150 mm^3 were assigned into 6 groups with 9 mice per group using a stratified randomization procedure. Mice were then treated with vehicle (0.5% methylcellulose) twice daily (BID) or Compound B at 5.45 mg/kg BID for 21 days, or E/C [etoposide at 12 mg/kg (Day1-3)+carboplatin at 60 mg/kg (Day1) of a 7 day cycle] for 3 cycles then vehicle BID for 21 days (Day22-42), or the combination of E/C with Compound B at 0.68, 1.36 or 2.73 mg/kg BID (Day1-4 of the 7 day cycle) for 3 cycles then Compound B maintenance therapy at 5.45 mg/kg BID for 21 days (Day22-42). In cohort2, animals with mean tumor size of ˜400 mm^3 were treated with E/C for 3 cycles first. At day22, 20 animals were assigned into 2 groups with 10 mice per group using a stratified randomization procedure, then treated with vehicle (0.5% methylcellulose) twice daily (BID) for 21 days (Day22-42), or Compound B maintenance therapy at 5.45 mg/kg BID for 21 days (Day22-42). All doses were based on free-base weight.

Series [3] can be described thus: Particle size distribution of crystalline sesqui-hydrate. The series is classed as physicochemical. Here is the method:
Compound A-Crude 2 (5.3 Kg) was mixed with a solution of isopropanol (41.6 Kg) and water (15.9 Kg). The mixture was degassed and re-protected under nitrogen and then heated to 60° C. and stirred for 2-4 h until the solid was dissolved completely. The temperature was raised to 70-80° C. and water (143 Kg) was added. The resulting mixture was heated to the internal temperature of 70-80° C. and then the heating was stopped but stirred gently for 16 h. The precipitate was filtered, washed with water (19 Kg) and slurred with water (21 kg) for 2 h. The resulting solid was filtered, washed with water (20 Kg). The filtered solid was dried at the temperature below 45° C. for 24-36 h. Compound A sesqui-hydrate (4.22 kg) was obtained with particle sizes of D90=51.51 um, D50=18.62 um, D10=7.63 um. This range of PSD is almost ideal for formulation development.

Series [4] relates to primary human SCLC (extensive-stage) xenograft. Nature of the series: Tumor growth in primary human SCLC (extensive-stage) xenograft model. The class given is in vivo, BALB/c nude mice. The settings on record: cohort2, E/C 3 cycles then Compound B 5.45 mg/kg BID for 21 days. Here is the method: as §1, with “extensive-stage SCLC.” for “gastric cancer.”, “biopsy, the” for “surgery, small fragments of”, “samples” for “(3×3×3 mm^3)”, “lung” for “gastric”
47 days after implantation, animals bearing tumor were divided to two cohorts, cohort lused smaller tumors for combination setting and cohort 2 used bigger tumors for maintenance setting. In cohort1, animals with mean tumor size of ˜150 mm^3 were assigned into 6 groups with 9 mice per group using a stratified randomization procedure. […]
After implantation, primary tumor volume was measured in two dimensions using a caliper. Tumor volume was calculated using the formula: V=0.5×(a×b^2) where a and b are the long and short diameters of the tumor, respectively. […]
Tumor growth inhibition (TGI) was calculated using the following formula: […]

Series [5] relates to Primary tumor cells from a patient with colorectal cancer cultured in Matrigel co-cultured with allogeneic human PBMCs. Nature of the series: IFN-γ release in primary human tumor cells (Matrigel)/PBMC co-culture with EpCAM×CD3 bispecific T cell engager. The series is classed as cell-based. The settings on record: 50 ng/mL EpCAM×CD3 bispecific T cell engager, 72 hours; Compound B 30 nM, Mab-1 1 μg/mL; treatment group divided by control group. The procedure:
After signed the informed consent, healthy human donor's blood was collected and PBMCs were isolated with Ficoll (GE Healthcare, 17-1440-02) according to the manufacturer's protocol with small modification. Briefly, fresh blood was diluted with equivalent volume of 1×DPBS (Gibco®, 14190-144), added equivalent volume of Ficoll into a 50 mL sterile tube, and added diluted blood very carefully onto the surface of the Ficoll. Then centrifuged at 400 g for 40 minutes at room temperature. Carefully removed the upper layer and pipetted the lymphocyte layer to a clean sterile tube, added 3 volumes of 1×DPBS and centrifuge at 200 g for 10 minutes at room temperature. After discarded the supernatant, suspended cells with 10 mL 1×DPBS and washed 2 times more. Suspended cells with 5 mL RPMI-1640 (Gibco®, 22400-089) complete medium (added with 10% fetal bovine serum (Gibco®, 10099-141). […]
Primary tumor cells from a patient with colorectal cancer cultured in Matrigel® were co-cultured with non pre-activated allogeneic human PBMCs, with 50 ng/ml EpCAM×CD3 bispecific T cell engager and with or without an PARP inhibitor named Compound B (30 nM) or an anti-PD-1 antibody named Mab-1 (1 μg/mL), or their combination (named as Mab-1+ Compound B, for short), and cultured for 72 hours. Human IFN-γ in the supernatant of the co-culture system was measured and as the readout (See FIG. 4). […]

Turning to `C[C@]12CCCN1CC1=NNC(=O)c3cc(F)cc4[nH]c2c1c34` [Compound A, (R)-2-fluoro-10a-methyl-7,8,9,10,10a,11-hexahydro-5,6,7a,11-tetraazacyclohepta[def]cyclopenta[a]fluoren-4(5H)-one], the “tumor growth inhibition (TGI) on day 21, single agent” value in series [1] came out at 30%. Further, the PARP1/2 inhibitory activities result with PARP1/2 was “highly selective and potent”.
`CC(=O)O[C@H]1C(=O)[C@@]2(C)[C@H]([C@H](OC(=O)c3ccccc3)[C@]3(O)C[C@H](OC(=O)[C@H](O)[C@@H](NC(=O)c4ccccc4)c4ccccc4)C(C)=C1C3(C)C)[C@]1(OC(C)=O)CO[C@@H]1C[C@@H]2O` [paclitaxel, reference compound]: the “tumor growth inhibition (TGI) on day 21, single agent” value in series [1] amounted to 31%.
For the compound `C[C@]12CCCN1CC1=NNC(=O)c3cc(F)cc4[nH]c2c1c34` [Compound B, (R)-2-fluoro-10a-methyl-7,8,9,10,10a,11-hexahydro-5,6,7a,11-tetraazacyclohepta[def]cyclopenta[a]fluoren-4(5H)-one sesqui-hydrate], the “body weight change during the maintenance phase compared to the E/C treatment group” value in series [2] is recorded as “no significant body weight change”. In series [3], the “particle size D10” value is 7.63 um, the “particle size D50” value turned out to be 18.62 um and the “particle size D90” value was 51.51 um. For the same compound, in series [4], the “mean tumor volume after maintenance” value is recorded as 571 mm^3. Further, the “fold changes of IFN-γ” value in series [5] was 1.08.
